Test results taken from patent US20230263712A1, “AN ORAL CARE ANTIMICROBIAL COMPOSITION, PROCESS FOR PREPARING THE SAME AND METHOD OF USE THEREOF” (ISP INVESTMENTS LLC, priority 2020, published 2023).
Like-named read-outs stand apart in the source and are kept apart here.

System: Streptococcus mutans UA159
Assay: Checkerboard microplate synergy assay (MIC, Synergy Index by the Kull method)
Assay type: cell-based
Conditions: for HPB Qa: MIC of compound A (HPB) when used in combination with compound B: HPB concentration in the combination with the labelled compound B; for SI index (Synergy Index = Qa/QA + Qb/QB): combination of HPB (raspberry ketone) with the labelled compound B, SI <1 synergistic
Description: The synergistic antimicrobial effect was determined using the commonly accepted method described by Kull […]. and Mayer, R. L. 1961. Applied Microbiology, 9:538-541 Brief description of the assay: Standard checkerboard approach was used to make all the dilutions. HPB (compound A) solution was prepared in DMSO and then serially diluted using a 96-well dilution plate. Automated liquid handler was then used to stamp multiple assay plates out of this dilution plate. Each well of the assay plate was then supplemented with a predetermined concentration of the second antimicrobial (compound B). The final concentration of DMSO was kept constant across the plate for each assay, not exceeding 3% (w/w). Then, S. mutans cell suspension in Todd Hewitt Broth supplemented with yeast extract (THYEB) was added to the appropriate wells of the assay plate with the final cell density being 10^6 cfu/ml. The assay plates were incubated for 48 hours at 37° C. in the atmosphere containing 5% CO2 prior to being evaluated. The lowest concentration of each compound (or a mixture of the two compounds) to inhibit visible growth was taken as the minimum inhibitory concentration (MIC). The MIC was taken as the end point of activity. End points for the combination of compound A (HPB) and compound B were then compared to the end points for each compound being used individually.

[1] = S. mutans, THYEB, 48 hours at 37° C., 5% CO2
[2] = Streptococcus mutans, UA159, S. mutans, THYEB, 48 hours at 37° C., 5% CO2, alone, read-out: Compound B QB: MIC of compound B acting alone

| SMILES | HPB Qa: MIC of compound A (HPB) when used in combination with compound B [1] | Compound B Qb: MIC of compound B when used in combination with compound A (HPB) [1] | MIC [2] | SI index (Synergy Index = Qa/QA + Qb/QB) (S. mutans) | also measured |
| --- | --- | --- | --- | --- | --- |
| N=C(NCCCCCCNC(=N)NC(=N)Nc1ccc(Cl)cc1)NC(=N)Nc1ccc(Cl)cc1.O=C(O)[C@H](O)[C@@H](O)[C@H](O)[C@H](O)CO.O=C(O)[C@H](O)[C@@H](O)[C@H](O)[C@H](O)CO [Chlorhexidine digluconate] | 4,000 ppm | 0.4 ppm | – | ≤0.75 | Compound B QB: MIC of compound B acting alone (S. mutans, THYEB, 48 hours at 37° C., 5% CO2, alone): 1.6 ppm |
| CC(=O)CCc1ccc(O)cc1 [HPB, 4-(4-hydroxyphenyl) butan-2-one] | – | – | – | – | MIC (Streptococcus mutans, UA159, S. mutans, THYEB, 48 hours at 37° C., 5% CO2, alone, read-out: HPB QA: MIC of compound A (HPB) acting alone): ≥ 8000 µg/mL |
| Cc1cc(O)ccc1C(C)C [Isopropyl Methylphenol (IPMP), 4-isopropyl-3-methyl phenol] | 125 ppm | 250 ppm | 500 µg/mL | ≤0.5016 | SI index (Synergy Index = Qa/QA + Qb/QB) (S. mutans, listed as IPMP): ≤ 0.5016 |
| CC12CCC(CC1)C(C)(C)O2 [eucalyptol] | – | – | – | – | MIC (alone, even when solubilized with 2% of Pluronic F-127): > 2%; Synergy with raspberry ketone (HPB) (standard synergy assay vs S. mutans): not detected |

Continued, in another order:

| HPB Qa: MIC of compound A (HPB) when used in combination with compound B [1] | Compound B Qb: MIC of compound B when used in combination with compound A (HPB) [1] | MIC [2] | SMILES | SI index (Synergy Index = Qa/QA + Qb/QB) (S. mutans) | also measured |
| --- | --- | --- | --- | --- | --- |
| 4,000 ppm | 1,000 ppm | ≥ 4000 µg/mL | CC1CCC(C(C)C)C(O)C1 (centres unmarked) [Menthol] | – | – |
| 4,000 ppm | 15.6 ppm | 125 µg/mL | Cc1ccc(C(C)C)c(O)c1 [Thymol] | ≤0.625 | SI index (Synergy Index = Qa/QA + Qb/QB) (S. mutans, listed as thymol): ≤ 0.625 |
